From US6686358B2, “Bicyclic amino-pyrazinone compounds” (Les Laboratoires Servier, priority 2000, dated 2004)
pIC50: −log10 of the molar value. Where a name gives a salt, the structure may show the parent alone.

Tests used:
Assay type in all cases: biochemical
human thrombin = biological target: T1, human thrombin (Homo sapiens, UniProt P00734); assay: Inhibition of thrombin (fibrin formation from fibrinogen, 405 nm); conditions: human thrombin 0.7 nM, fibrinogen substrate, 20° C., compared with control without product; read-out: concentration inhibiting the enzymatic activity of thrombin by 50% (IC50)
T1 construct: purchased Sigma
Protocol: For in vitro evaluation of the inhibitory activity of the products of the invention on human thrombin (Sigma, specific activity 3230 NIH units/mg), purified human fibrinogen ([…], Stago) (Fg) was added to a given amount of thrombin (0.7 nM) that had previously been incubated with or without the inhibitor to be tested (20° C., 10 minutes).
Inhibitors, enzymes and substrates are diluted in the same buffer (0.01 mM phosphate buffer, pH 7.4, containing 0.12M sodium chloride and 0.05% bovine serum albumin) and then distributed in a polystyrene microtitre plate in a volume of 50 μl.
The fibrin formed by the thrombin or by the paranitroanilide released by the action of the serine protease is measured spectrophotometrically at 405 nm after from 15 to 30 minutes' reaction at 20° C.

[1] = system: human plasma samples (activated cephalin time); assay: Anti-coagulant activity, activated cephalin time (ACT) in human plasma; conditions: concentration that doubles the activated cephalin time, 37° C.
Protocol: (§1) In order to evaluate the anti-coagulant activity of the compounds of the invention, the thrombin time (TT) and the activated cephalin time (ACT) were determined in human plasma samples. An ST4 coagulometer was used. A plasma deficient in platelets is lyophilised and taken up in distilled water. The TT is obtained using the reagent Thrombine Prest and the ACT is obtained using the reagent Céphaline PTT Automate. Inhibitor or solvent (10 μl) is added to the plasma (90 μl), which is then incubated for 2 minutes at 37° C. 100 μl of Thrombine Prest (TT) or of Céphaline PTT Automate (ACT) are added and at the same time the timer is started.
(§2) Under those conditions, the TT is of the order of 18 seconds and the ACT of the order of 12 seconds. The activity of an antagonist is evaluated by its capacity to prolong the TT and the ACT relative to the control. The effect of the inhibitors is expressed by the concentration in μM that doubles the coagulation time (Ctt2).

[2] = system: human plasma samples (thrombin time); assay: Anti-coagulant activity, thrombin time (TT) in human plasma; conditions: concentration that doubles the thrombin time, 37° C.
Protocol: as §1, §2

Row | SMILES | pIC50 (human thrombin) | ACT Ctt2 [1] | TT Ctt2 [2]
1 | Nc1noc2cc(CNC(=O)[C@@H]3CCc4cnc(NCCc5ccccn5)c(=O)n43)ccc12 [Example 17] | 6.85 |  | 
2 | O=C(NCc1ccccc1OCc1ccccn1)[C@@H]1CCc2cnc(NCCc3ccccn3)c(=O)n21 [Example 10, (6S)-4-oxo-3-{[2-(2-pyridyl)ethyl]amino}-N-[2-(2-pyridylmethoxy)-benzyl]-4,6,7,8-tetrahydropyrrolo[1,2-a]pyrazine-6-carboxamide] | 6.87 |  | 
3 | O=C(NCc1ccc2cc[nH]c2c1)[C@@H]1CCc2cnc(NCCc3ccccn3)c(=O)n21 [Example 18, (6S)-N-[1H-indol-6-ylmethyl)-4-oxo-3-{[2-(2-pyridyl)ethyl]amino}-4,6,7,8-tetrahydropyrrolo[1,2-a]pyrazine-6-carboxamide] | 7.66 | 3.07 µM | 0.28 µM
4 | O=C(NCc1ccccc1OCC1=NCCN1)[C@@H]1CCc2cnc(NCCc3ccccn3)c(=O)n21 [Example 15, (6S)-N-[2-(4,5-dihydro-1H-imidazol-2-ylmethoxy)benzyl]4-oxo-3-{[2-(2-pyridyl)ethyl]amino}-4,6,7,8-tetrahydropyrrolo[1,2-a]-pyrazine-6-carboxamide] | 7.92 | 1.91 µM | 0.19 µM
5 | NC(=NO)c1ccc(CNC(=O)[C@@H]2CCc3cnc(NCCc4ccccn4)c(=O)n32)cc1 [Example 2, (6S)-N-{4-[amino(hydroxyimino)methyl]benzyl}-4-oxo-3-{(2-(2-pyridyl)ethyl]amino}-4,6,7,8-tetrahydropyrrolo[1,2-a]pyrazine-6-carboxamide] | 6.51 | 20 µM | 3.6 µM
6 | NC(=NO)c1ccc(CNC(=O)[C@@H]2CCc3cnc(NCC(c4ccccc4)c4ccccc4)c(=O)n32)cc1 [Example 1, (6S)-N-{4-[amino(hydroxyimino)methyl]benzyl}-3-[(2,2-diphenyl-ethyl)amino]-4-oxo4,6,7,8-tetrahydropyrrolo[1,2-a]pyrazine-6-carboxamide] | 6.85 |  | 
7 | N=C(N)NOCCNC(=O)[C@@H]1CCc2cnc(NCC(c3ccccc3)c3ccccc3)c(=O)n21 [Example 3, (6S)-N-[2-({[amino(imino)methyl]amino}oxy)ethyl]-3-[(2,2-diphenyl-ethyl)amino]-4-oxo4,6,7,8-tetrahydropyrrolo[1,2-a]pyrazine-6-carboxamide dihydrochloride] | 8.40 |  | 
